According to US7462600B2, “Macrolides” (Pfizer Inc, priority 2004, dated 2008):
Converted amounts (≈) assume the structure as drawn. Like-named read-outs stand apart in the source and are kept apart here.

Key:
Assay type in all cases: cell-based
[1] = system: Streptococcus pyogenes 1079; test: MIC, microtiter broth dilution (NCCLS M100-S14), S. pyogenes 1079 (ermB)
Procedure, shortened: (§1)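 Steps: dissolve compound in DMSO to 40 mg/ml stock; dilute in broth across microtiter trays; inoculate strains; record MIC per NCCLS M100-S14.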

[2] = system: Streptococcus pneumoniae 1016; test: MIC, microtiter broth dilution (NCCLS M100-S14), S. pneumoniae 1016 (susceptible)
Procedure, shortened: as §1

[3] = system: Streptococcus pneumoniae 1095; details: microtiter broth dilution
Procedure, shortened: as §1

[4] = system: Streptococcus pneumoniae 1175; details: microtiter broth dilution
Procedure, shortened: as §1

[5] = system: Haemophilus influenzae 1218; test: MIC, microtiter broth dilution (NCCLS M100-S14), H. influenzae 1218 (susceptible)
Procedure, shortened: as §1

[6] = S. pneumoniae 1016 (susceptible)
[7] = H. influenzae 1218 (susceptible)

Compound | MIC S. pyogenes 1079 ([1]; Streptococcus pyogenes 1079) [µg/mL] | MIC S. pneumo. 1016 ([2]; Streptococcus pneumoniae 1016) [µg/mL] | MIC S. pneumo. 1095 ([3]; Streptococcus pneumoniae 1095) [µg/mL] | MIC S. pneumo. 1175 ([4]; Streptococcus pneumoniae 1175) [µg/mL] | MIC H. influenzae 1218 ([5]; Haemophilus influenzae 1218) [µg/mL] | MIC S. pyogenes 1079 ([1]; S. pyogenes 1079 (ermB)) [µg/mL] | MIC S. pneumo. 1016 [2, 6] [µg/mL] | MIC S. pneumo. 1095 ([3]; S. pneumoniae 1095 (ermB)) [µg/mL] | MIC S. pneumo. 1175 ([4]; S. pneumoniae 1175 (mefA)) [µg/mL] | MIC H. influenzae 1218 [5, 7] [µg/mL]
CCC1OC(=O)C(C)C(=O)C(C)C(OC2OC(C)CC(N(C)C)C2O)C(C)(OC)CC(C)C(=O)C(C)C2N(CC3CN(C(=O)c4cnn5ccccc45)C3)C(=O)OC12C (stereo not drawn) [4.35] | >64.00 | <0.06 | 1 (≈ 1.21 µM) | 0.12 (≈ 0.145 µM) | 1 (≈ 1.21 µM) | – | – | – | – | –
CC[C@H]1OC(=O)[C@H](C)C(=O)[C@H](C)[C@@H](O[C@@H]2O[C@H](C)C[C@H](N(C)C)[C@H]2O)[C@](C)(OC)C[C@@H](C)C(=O)[C@H](C)[C@H]2N(CC3(O)CN(C(=O)c4cc5ncccc5[nH]4)C3)C(=O)O[C@]12C.O=CO [7.32] | – | – | – | – | – | >64.00 | <0.06 | <0.06 | 2 | 2
CCC1OC(=O)C(C)C(=O)C(C)C(OC2OC(C)CC(N(C)C)C2O)C(C)(OC)CC(C)C(=O)C(C)C2N(CC3CCN(C(=O)c4cnc5ccccc5n4)C3)C(=O)OC12C (stereo not drawn) [13.13] | – | – | – | – | – | >64.00 | <0.06 | >64.00 | 0.5 (≈ 0.587 µM) | 16 (≈ 18.8 µM)
CCC1OC(=O)C(C)C(=O)C(C)C(OC2OC(C)CC(N(C)C)C2O)C(C)(OC)CC(C)C(=O)C(C)C2N(CC3CCCN3C(=O)c3cncc4ccccc34)C(=O)OC12C.O=CO (stereo not drawn) [10.20] | – | – | – | – | – | 64 | <0.06 | <0.06 | 0.12 | 2
CCC1OC(=O)C(C)C(=O)C(C)C(OC2OC(C)CC(N(C)C)C2O)C(C)(OC)CC(C)C(=O)C(C)C2N(CC3CCN(Cc4cnc5ccccc5c4)C3)C(=O)OC12C (stereo not drawn) [11.03] | – | – | – | – | – | 64 (≈ 76.5 µM) | <0.06 | <0.06 | 0.5 (≈ 0.597 µM) | 2 (≈ 2.39 µM)
CCC1OC(=O)C(C)C(=O)C(C)C(OC2OC(C)CC(N(C)C)C2O)C(C)(OC)CC(C)C(=O)C(C)C2N(CC3CCCN3C(=O)c3cc4ccncc4[nH]3)C(=O)OC12C (stereo not drawn) [10.34] | – | – | – | – | – | >64.00 | <0.06 | 0.12 (≈ 0.143 µM) | 0.12 (≈ 0.143 µM) | 2 (≈ 2.38 µM)
CCC1OC(=O)C(C)C(=O)C(C)C(OC2OC(C)CC(N(C)C)C2O)C(C)(OC)CC(C)C(=O)C(C)C2N(C3CN(Cc4ccnc5ccc(OC)cc45)C3)C(=O)OC12C (stereo not drawn) [Example 1.90, 3-descladinosyl-11,12-dideoxy-4-O-methyl-3-oxo-12,11-(oxycarbonyl-(1-(6-methoxyquinoline-4-methyl)-azetidin-3-yl)-imino)-erythromycin A] | 2 (≈ 2.38 µM) | <0.063 | 0.125 (≈ 0.149 µM) | <0.063 | 2 (≈ 2.38 µM) | – | – | – | – | –
CCC1OC(=O)C(C)C(=O)C(C)C(OC2OC(C)CC(N(C)C)C2O)C(C)(OC)CC(C)C(=O)C(C)C2N(C3CN(Cc4ccncc4)C3)C(=O)OC12C (stereo not drawn) [Example 1.04, (pyridin-4-yl)methyl] | >64.00 | <0.06 | 0.12 (≈ 0.158 µM) | 0.5 (≈ 0.659 µM) | 0.25 (≈ 0.329 µM) | – | – | – | – | –
CCC1OC(=O)C(C)C(=O)C(C)C(OC2OC(C)CC(N(C)C)C2O)C(C)(OC)CC(C)C(=O)C(C)C2N(CC3CCCN3C(=O)c3nc4cccnc4[nH]3)C(=O)OC12C (stereo not drawn) [10.25] | – | – | – | – | – | >64.00 | <0.06 | <0.06 | 0.5 (≈ 0.595 µM) | 4 (≈ 4.76 µM)
CCC1OC(=O)C(C)C(=O)C(C)C(OC2OC(C)CC(N(C)C)C2O)C(C)(OC)CC(C)C(=O)C(C)C2N(CC3CCCN3C(=O)c3ccnc4[nH]cnc34)C(=O)OC12C (stereo not drawn) [10.50] | – | – | – | – | – | >64.00 | <0.06 | 0.5 (≈ 0.595 µM) | 2 (≈ 2.38 µM) | 8 (≈ 9.51 µM)
CC[C@H]1OC(=O)[C@H](C)[C@@H](OC(=O)N2CCCC2C)[C@H](C)[C@@H](O[C@@H]2O[C@H](C)C[C@H](N(C)C)[C@H]2O)[C@](C)(OC)C[C@@H](C)C(=O)[C@H](C)[C@H]2N(CC3CN(Cc4cccc5cccnc45)C3)C(=O)O[C@]12C (stereo partly drawn) [Example 5.04] | 4 (≈ 4.27 µM) | <0.06 | <0.06 | <0.06 | 1 (≈ 1.07 µM) | – | – | – | – | –
CCC1OC(=O)C(C)C(=O)C(C)C(OC2OC(C)CC(N(C)C)C2O)C(C)(OC)CC(C)C(=O)C(C)C2N(C3CN(C(=O)c4cccc(-n5nc(C)cc5C)c4)C3)C(=O)OC12C (stereo not drawn) [Example 2.17, 3-(3,5-dimethyl-1H-pyrazol-1-yl)benzoyl] | >64.00 | <0.06 | >64.00 | 0.25 (≈ 0.289 µM) | >64.00 | – | – | – | – | –
CC[C@H]1OC(=O)[C@H](C)[C@@H](OC(=O)N2CCCC2)[C@H](C)[C@@H](O[C@@H]2O[C@H](C)C[C@H](N(C)C)[C@H]2O)[C@](C)(OC)C[C@@H](C)C(=O)[C@H](C)[C@H]2N(CC3CN(C(=O)c4cccc5cccnc45)C3)C(=O)O[C@]12C [Example 5.07, 2-R^2: quinoline-8-carboxyl; R^#: pyrrolidin-1-yl] | 16 (≈ 17.1 µM) | <0.06 | 0.25 (≈ 0.267 µM) | <0.06 | 4 (≈ 4.27 µM) | – | – | – | – | –
CCC1OC(=O)C(C)C(=O)C(C)C(OC2OC(C)CC(N(C)C)C2O)C(C)(OC)CC(C)C(=O)C(C)C2N(C3CN(S(=O)(=O)c4ccc(OC)cc4OC)C3)C(=O)OC12C (stereo not drawn) [Example 3.31, 3-descladinosyl-11,12-dideoxy-6-O-methyl-3-oxo-12,11-(1-(oxycarbonyl-(2,4-dimethoxybenzenesulfonyl)-azetidin-3-yl)-imino)-erythromycin A] | 4 (≈ 4.61 µM) | <0.06 | 2 (≈ 2.3 µM) | 0.12 (≈ 0.138 µM) | 0.5 (≈ 0.576 µM) | – | – | – | – | –
CCC1OC(=O)C(C)C(=O)C(C)C(OC2OC(C)CC(N(C)C)C2O)C(C)(OC)CC(C)C(=O)C(C)C2N(C3CN(S(=O)(=O)c4ccc(-n5ccnc5)c(C)c4)C3)C(=O)OC12C (stereo not drawn) [Example 3.53, 4-(1H-imidazol-1-yl)-3-methylbenzenesulfonyl] | 64 (≈ 72.1 µM) | <0.06 | <0.06 | 0.25 (≈ 0.282 µM) | 4 (≈ 4.5 µM) | – | – | – | – | –
CC[C@H]1OC(=O)[C@H](C)C(=O)[C@H](C)[C@@H](O[C@@H]2O[C@H](C)C[C@H](N(C)C)[C@H]2O)[C@](C)(OC)C[C@@H](C)C(=O)[C@H](C)[C@H]2N(CC3(O)CN(C(=O)c4ccc5ccccc5n4)C3)C(=O)O[C@]12C [7.22] | – | – | – | – | – | >64.00 | <0.06 | <0.06 | 0.12 (≈ 0.141 µM) | 1 (≈ 1.17 µM)
CCC1OC(=O)C(C)C(=O)C(C)C(OC2OC(C)CC(N(C)C)C2O)C(C)(OC)CC(C)C(=O)C(C)C2N(C3CN(S(=O)(=O)c4ccc(N5CCOC5=O)cc4)C3)C(=O)OC12C (stereo not drawn) [Example 3.115, 3-descladinosyl-11,12-dideoxy-6-O-methyl-3-oxo-12,11-(oxycarbonyl-(1-(4-(2-oxooxazolidin-3-yl)benzene-1-sulfonyl)-azetidin-3-yl)-imino)-erythromycin A] | 0.25 (≈ 0.28 µM) | <0.063 | <0.063 | 0.125 (≈ 0.14 µM) | 1 (≈ 1.12 µM) | – | – | – | – | –
CCC1OC(=O)C(C)C(=O)C(C)C(OC2OC(C)CC(N(C)C)C2O)C(C)(OC)CC(C)C(=O)C(C)C2N(CC3CCCN3C(=O)c3ccnc4ncsc34)C(=O)OC12C (stereo not drawn) [10.44] | – | – | – | – | – | >64.00 | <0.06 | <0.06 | 0.12 (≈ 0.14 µM) | 1 (≈ 1.17 µM)
